Data taken from US4418075A, “Epoxysuccinyl amino acid derivatives” (Taisho Pharmaceutical Co., Ltd., priority 1979, dated 1983).

Columns and labels:
[1] = Concentration in rat plasma after subcutaneous administration; type: in vivo; details: sc, rats, 50 mg/kg, an hour after administration
Procedure: The compounds of the present invention are better absorbed by the subcutaneous route in mammals such as rats or rabbits, as compared with the epoxysuccinic acid derivatives of the German Patent Laid Open Application described above and Chemical Abstracts, 87, 68129a (1977). To determine absorption, these compounds were administered subcutaneously to rats at a dose of 50 mg/kg, and the concentration of the test compound in rat plasma at an hour after the administration is shown in following Table 1.

[2] = molecular target: T1, CANP prepared from a muscle of hereditary muscular dystrophy chicken (Gallus gallus, UniProt P00789); test: CANP inhibitory activity (method of Ishiura et al.); type: biochemical; details: 50% inhibition as molar ratio to the enzyme
T1 construct: CANP prepared from a muscle of hereditary muscular dystrophy chicken; from tissue; host or cells: muscle of hereditary muscular dystrophy chicken
T1 sequence (P00789 1-705): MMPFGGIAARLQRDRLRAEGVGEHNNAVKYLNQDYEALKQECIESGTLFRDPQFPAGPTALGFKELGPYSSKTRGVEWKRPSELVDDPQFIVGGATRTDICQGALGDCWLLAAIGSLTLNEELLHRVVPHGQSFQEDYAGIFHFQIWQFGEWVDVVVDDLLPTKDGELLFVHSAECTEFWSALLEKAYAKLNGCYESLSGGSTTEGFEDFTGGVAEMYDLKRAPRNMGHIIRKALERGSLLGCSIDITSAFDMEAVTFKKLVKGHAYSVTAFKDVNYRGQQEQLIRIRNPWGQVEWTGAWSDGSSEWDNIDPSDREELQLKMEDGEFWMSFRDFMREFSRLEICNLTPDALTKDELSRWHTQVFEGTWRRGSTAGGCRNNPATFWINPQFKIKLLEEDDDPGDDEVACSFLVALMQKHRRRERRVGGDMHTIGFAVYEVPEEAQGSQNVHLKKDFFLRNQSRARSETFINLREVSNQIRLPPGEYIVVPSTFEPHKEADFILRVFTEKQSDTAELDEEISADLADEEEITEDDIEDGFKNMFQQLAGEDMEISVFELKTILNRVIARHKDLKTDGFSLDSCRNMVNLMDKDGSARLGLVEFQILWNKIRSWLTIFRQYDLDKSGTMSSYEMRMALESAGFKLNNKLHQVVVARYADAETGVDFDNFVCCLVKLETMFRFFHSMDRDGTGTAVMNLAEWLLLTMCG
Procedure: Their muscular dystrophy inhibitory activity was assayed by the method of Ishiura et al., [J. Biochem., 84, 225 (1978)] using CANP prepared from a muscle of hereditary muscular dystrophy chicken, and the resulting value for 50% inhibition in the molar ratios for the enzyme expressed as ID50 (mole/mole) is shown in Table 1 below.

papain = molecular target: T2, papain (Carica papaya, UniProt P00784); test: Papain inhibitory activity (method of K. Hanada et al.); type: biochemical; details: amount of inhibitor for 50% inhibition; papain 80 μg/ml, Sigma, twice crystallized
T2 construct: purchased Sigma Chem. Co
T2 sequence (P00784 134-345): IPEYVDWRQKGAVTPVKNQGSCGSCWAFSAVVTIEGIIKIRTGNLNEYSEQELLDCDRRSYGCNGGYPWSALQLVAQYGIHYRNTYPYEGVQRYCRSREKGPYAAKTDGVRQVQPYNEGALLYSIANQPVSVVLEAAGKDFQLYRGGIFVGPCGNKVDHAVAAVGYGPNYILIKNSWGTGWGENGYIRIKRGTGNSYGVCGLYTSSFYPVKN
Procedure: Papain inhibitory activity of the compounds of the present invention was assayed by the method of K. Hanada et al [Argic. Biol. Chem., 42, (3)523(1978)] using papain (80 μg/ml, Sigma Chem. Co.) after twice crystallization.

[3] = in vivo
Procedure: The response was evaluated by the blueing spot at 15 minutes after the dye injection.

Structure (SMILES) | concentration at 1 h [1] | CANP Inhibitory Activity ID50 (mole/mole) [2] | Papain inhibitory activity ID50 (papain) | Acceleration of vascular permeability, Relative effect (%) to E-64 [3]
CCOC(=O)C1OC1C(=O)N[C@@H](CC(C)C)C(=O)NCCCCNC(=O)OCc1ccccc1 (stereo partly drawn) [F, N--[N--(DL3-trans-ethoxycarbonyloxirane-2-carbonyl)-L-leucyl] N'--benzyloxycarbonyl1,4-diaminobutane, reference compound] | < 1000 ng/mL | 480 mole/mole |  | 
CC(C)C[C@H](NC(=O)C1OC1C(=O)O)C(=O)NCCCCCCCNC(=O)OCc1ccccc1 (mixture of isomers) [Compound 3, N-[N-(DL-3-trans-carboxyoxirane-2-carbonyl)-L-leucyl]-N'-benzyloxycarbonyl-1,7-diaminoheptane] | 11000 ng/mL | 20 mole/mole | 0.203 µg | 2.4%
CC(C)C[C@H](NC(=O)[C@H]1O[C@@H]1C(=O)O)C(=O)NCCCCCCCN [Compound 1, N-[N-(L-3-trans-carboxyoxirane-2-carbonyl)-L-leucyl]-1,7-diaminoheptane] | 15000 ng/mL | 33 mole/mole | 0.103 µg | 2.8%
CC(C)C[C@H](NC(=O)[C@H]1O[C@@H]1C(=O)O)C(=O)NCCCCN=C(N)N [Compound E-64, N-[N-(L-3-trans-carboxyoxirane-2-carbonyl)-L-leucyl]agmatine, reference compound] |  |  |  | 100.0%
CC(C)C[C@H](NC(=O)C1OC1C(=O)O)C(=O)NCCCCCN (mixture of isomers) [Compound 2, N-[N-(DL-3-trans-carboxyoxirane-2-carbonyl)-L-leucyl]-1,5-diaminopentane] | 20000 ng/mL | 54 mole/mole | 0.105 µg | 2.3%
